Reference: ChEMBL document CHEMBL1201862, “PubChem BioAssay data set” (2004)
Calls of active or inactive are those of the source.

How the values were obtained:
[1] = molecular target: T1, Heat shock factor protein 1 (Mus musculus, UniProt P38532); test: HSF1 potentiators in luciferase reporter cells, confirmation, cell-based, NIH3T3, luminescence, dose retest (AID 435004); assay type: functional;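 further: stress induced by proteasome inhibitor MG132 added 30 min after compound; luciferase reporter driven by HSF1 response element in NIH3T3 cells; actives raise luminescence as potentiators of the MG132 stress response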
T1 sequence (P38532 whole entry): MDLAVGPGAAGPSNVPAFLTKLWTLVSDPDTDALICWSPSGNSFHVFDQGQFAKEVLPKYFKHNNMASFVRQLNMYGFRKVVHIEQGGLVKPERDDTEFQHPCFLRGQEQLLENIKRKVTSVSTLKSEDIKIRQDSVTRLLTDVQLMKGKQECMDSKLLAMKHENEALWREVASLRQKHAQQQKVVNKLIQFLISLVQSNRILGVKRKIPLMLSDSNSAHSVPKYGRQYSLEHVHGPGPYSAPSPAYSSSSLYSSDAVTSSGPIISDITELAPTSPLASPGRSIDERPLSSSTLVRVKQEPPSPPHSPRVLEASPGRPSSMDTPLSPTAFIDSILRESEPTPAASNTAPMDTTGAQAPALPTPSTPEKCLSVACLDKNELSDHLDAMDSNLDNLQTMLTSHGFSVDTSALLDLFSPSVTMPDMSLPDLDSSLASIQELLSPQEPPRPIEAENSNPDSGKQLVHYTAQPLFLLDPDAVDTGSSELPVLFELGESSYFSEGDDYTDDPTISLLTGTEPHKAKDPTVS

[2] = molecular target: T2, Oxysterols receptor LXR-beta (Homo sapiens, UniProt P55055); assay type: functional, cell-based
T2 sequence (P55055 whole entry): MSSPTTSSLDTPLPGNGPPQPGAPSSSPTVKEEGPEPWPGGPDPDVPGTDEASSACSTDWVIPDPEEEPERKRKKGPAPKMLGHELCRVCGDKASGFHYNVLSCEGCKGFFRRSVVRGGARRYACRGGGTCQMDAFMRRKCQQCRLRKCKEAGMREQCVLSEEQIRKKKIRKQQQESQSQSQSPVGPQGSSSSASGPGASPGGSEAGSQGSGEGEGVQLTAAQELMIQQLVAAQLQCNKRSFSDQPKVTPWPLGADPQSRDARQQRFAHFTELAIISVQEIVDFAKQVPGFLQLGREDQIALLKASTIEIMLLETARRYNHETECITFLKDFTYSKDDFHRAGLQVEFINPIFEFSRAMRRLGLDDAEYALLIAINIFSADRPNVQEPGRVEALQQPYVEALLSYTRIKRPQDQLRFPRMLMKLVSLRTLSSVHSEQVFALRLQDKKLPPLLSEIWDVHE

cells [3] = test: cells
[4] = P. falciparum late gametocyte killing, dose response, luminescence (AID 1117278); assay type: functional, cell-based;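 further: gametocytes exposed to compound for 24 hours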
[5] = Jurkat T cell cytotoxicity, dose response, cytotoxicity control for P. falciparum gametocyte viability project, luminescence (AID 1117277); assay type: functional, cell-based;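 further: potency reflects loss of cellular ATP meaning fewer viable cells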
[6] = inhibitors of intracellular T. cruzi replication, confirmation, NIH3T3 host cells, beta-gal luminescence (AID 2044); assay type: functional, cell-based;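 further: intracellular parasites grown in NIH/3T3 mouse fibroblasts as host cells; luminescent beta-galactosidase reporter signal from transgenic T. cruzi replicating inside host cells; inhibitors lower the luminescence signal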
[7] = cytotoxicity toward NIH3T3 fibroblasts, dose response, counter-screen, cell-based, ATP luminescence, mouse fibroblasts (AID 2010); assay type: functional;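 further: cells exposed to compound for about 90 hours before reading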
cells [8] = test: cells; remark: listed apart in the source
[9] = molecular target: T2, Oxysterols receptor LXR-beta; assay type: functional, cell-based; remark: listed apart in the source
[10] = molecular target: T3, Nuclear receptor subfamily 0 group B member 1 (Homo sapiens, UniProt P51843); assay type: functional, cell-based;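 further: HEK293T cells transfected with SF-1 and DAX-1 plus StAR promoter luciferase reporter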
T3 sequence (P51843 whole entry): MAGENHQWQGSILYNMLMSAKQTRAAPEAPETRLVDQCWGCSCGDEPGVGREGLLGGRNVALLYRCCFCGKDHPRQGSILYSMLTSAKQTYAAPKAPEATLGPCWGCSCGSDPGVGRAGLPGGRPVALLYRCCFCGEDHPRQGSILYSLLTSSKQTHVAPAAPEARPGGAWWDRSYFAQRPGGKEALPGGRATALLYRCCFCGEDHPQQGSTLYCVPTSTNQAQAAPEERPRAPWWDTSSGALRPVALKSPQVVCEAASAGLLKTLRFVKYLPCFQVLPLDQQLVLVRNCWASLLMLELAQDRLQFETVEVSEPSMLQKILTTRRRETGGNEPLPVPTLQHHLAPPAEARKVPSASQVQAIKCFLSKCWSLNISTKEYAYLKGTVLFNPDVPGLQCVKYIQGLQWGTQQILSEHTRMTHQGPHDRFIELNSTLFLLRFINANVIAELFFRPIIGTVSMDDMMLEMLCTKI

[11] = molecular target: T4, Calpain-2 catalytic subunit (Sus scrofa, UniProt P43367); test: pig calpain II inhibitor potency, dose response, biochemical, fluorogenic peptide substrate (AID 1420); assay type: functional
T4 sequence (P43367 whole entry): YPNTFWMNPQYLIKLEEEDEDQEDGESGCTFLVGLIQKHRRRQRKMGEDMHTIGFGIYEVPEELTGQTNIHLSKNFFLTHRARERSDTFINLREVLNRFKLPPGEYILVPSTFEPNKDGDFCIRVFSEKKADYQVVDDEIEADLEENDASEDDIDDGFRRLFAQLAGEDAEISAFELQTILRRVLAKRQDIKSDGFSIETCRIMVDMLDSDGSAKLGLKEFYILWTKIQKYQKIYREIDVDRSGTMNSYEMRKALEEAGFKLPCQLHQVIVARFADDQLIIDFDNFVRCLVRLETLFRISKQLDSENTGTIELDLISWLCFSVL

cells [12] = assay type: functional, cell-based
[13] = molecular target: T2, Oxysterols receptor LXR-beta; test: LXR agonists, Gal4 luciferase reporter, dose response, counter-screen for ssDAF-12 agonist project, cell-based, luminescence, HEK293, S. stercoralis campaign (AID 720737); assay type: functional; details: read-out: IC50 (the source's name)
[14] = Luminescence-based cell-based high throughput dose response assay to identify activators of the DAF-12 from the parasite S. stercoralis (ssDAF-12).; assay type: functional
[15] = HepG2 cell cytotoxicity, dose response, cytotoxicity control, cherry-picks, set 5 (AID 1053118); assay type: functional, cell-based
[16] = HepG2 cell cytotoxicity, dose response, cytotoxicity control, cherry-picked samples (AID 1159577); assay type: functional, cell-based
[17] = A549 cell cytotoxicity, dose response, cytotoxicity control, cherry-picks, 26 µM top dose (AID 1053119); assay type: functional, cell-based
[18] = HEK293 cell cytotoxicity, dose response, cytotoxicity control, cherry-picks, set 5 (AID 1053117); assay type: functional, cell-based
[19] = P. falciparum Dd2 growth inhibitors, dose response, SYBR Green, cherry-picked samples (AID 1159567); assay type: functional, cell-based
[20] = LGR2 antagonists, dose response, cell-based, HEK293, CRE-luciferase reporter, cherry pick, set 2 (AID 743343); assay type: functional;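 further: transfected cells were stimulated with diluted bursicon conditioned medium after compound addition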
[21] = A549 cell cytotoxicity, dose response, cytotoxicity control, plate reader, cherry-pick, antagonist series (AID 743412); assay type: functional, cell-based
[22] = HepG2 cell cytotoxicity, dose response, cytotoxicity control, plate reader, dry powder samples (AID 1159569); assay type: functional, cell-based;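 further: inhibitor potency with signal falling toward the positive control level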
[23] = P. falciparum Dd2 growth inhibitors, dose response, SYBR Green, dry powder samples (AID 1159566); assay type: functional, cell-based;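 further: potency for growth inhibition with lower SYBR green DNA signal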
[24] = P. falciparum 3D7-ScDHODH growth inhibitors, dose response, SYBR Green, dry powder samples (AID 1159570); assay type: functional, cell-based;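 further: parasite growth measured after 72 hours of compound exposure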
[25] = P. falciparum ATP4 D1247Y mutant growth inhibitors, dose response, NITD609-resistant line, SYBR Green, dry powder (AID 1159571); assay type: functional, cell-based;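 further: parasites synchronized at ring stage by sorbitol before testing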
[26] = ARNT/TACC3 interaction disruptors, potency, confirmation, biochemical, AlphaScreen, cherry-picked samples (AID 651703); assay type: functional, Homo sapiens;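 further: His-tagged ARNT PAS-B domain paired with GST-TACC3 E629A dimer coactivator fragment; potency of inhibitors that break up the complex and lower AlphaScreen signal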

## CC(C)c1ccc(-n2cnn(-c3ncccc3[N+](=O)[O-])c2=O)cc1
[1]
  EC50: > 260 µM (inactive)
[2]
  EC50: > 67.5 µM (inactive)
Cells [3]
  EC50: > 67.5 µM (inactive)

## NCCN1CCN(CCN)CC1
[4]
  IC50: > 109 µM (inactive)
[5]
  IC50: > 83.4 µM (inactive)

## CCc1ccc(CN2CCCC(CCC(=O)N3CCN(c4ccccn4)CC3)C2)o1 (stereo unspecified)
[6]
  EC50: < 0.1 µM (active)
[7]
  EC50: > 60 µM (not active)
Cells [8]
  EC50: 0.021 µM (active)

## Oc1ccccc1-c1cc(-c2ccc3c(c2)OCCO3)[nH]n1
[9]
  EC50: > 67.6 µM (inactive)
[10]
  IC50: 17.6 µM (inactive)
[11]
  IC50: > 50 µM (not active)
Cells [12]
  IC50: > 67.6 µM (inactive)

## O=c1[nH][nH]c2cc(=O)n(-c3cccc(C(F)(F)F)c3)nc12
[1]
  EC50: > 260 µM (inactive)
[13]
  EC50: > 67.5 µM (inactive)
[14]
  IC50: > 67.5 µM (inactive)

## CO[C@@H]1CN(C)C(=O)c2ccc(NC(=O)c3ccc(-c4ccccc4)cc3)cc2OC[C@H](C)NC[C@@H]1C
[15]
  AC50: 12.2 µM (active)
[16]
  AC50: 8.05 µM (active)
[17]
  AC50: 16.2 µM (active)
[18]
  AC50: 18.1 µM (active)
[19]
  AC50: 4.99 µM (active)

## NCC[C@H]1CC[C@H](NS(=O)(=O)Cc2ccccc2)[C@@H](CO)O1
[20]
  AC50: 40.7 µM (active)
[21]
  AC50: > 52 µM (inactive)

## N#C[C@H]1[C@H](c2ccc(-c3cccc(F)c3)cc2)[C@H](CO)N1C(=O)c1cccnc1
[22]
  AC50: 76.8 µM (active)
[16]
  AC50: > 39 µM (inactive)
[23]
  AC50: 0.641 µM (active)
[24]
  AC50: 1.33 µM (active)
[25]
  AC50: 0.69 µM (active)
[19]
  AC50: 1.16 µM (active)

## COCC(=O)Nc1ccc2c(c1)C(=O)N(C)C[C@H](OC)[C@H](C)CN(Cc1cc(F)ccc1F)[C@@H](C)CO2
[22]
  AC50: > 100 µM (inactive)
[23]
  AC50: 1.18 µM (active)
[24]
  AC50: 13.1 µM (active)
[25]
  AC50: 1.84 µM (active)
[19]
  AC50: 2.25 µM (active)

## COc1ccc(-c2oc3cc(O)c(OC)c(O)c3c(=O)c2OC)cc1O [CENTAUREIDIN]
[10]
  IC50: 35 µM (inactive)
[26]
  AC50: 101 µM (active)
Cells [12]
  IC50: > 67.5 µM (inactive)
